Reference: PubChem BioAssay AID1918935 (Molecular Pharmacology Branch, DTP, NCI, 2023)
Several values for one entry are separate records, joined by “and”; a condition that tells them apart may be missing. Identical values can stand only once.

Test system: 324938-238-R-J1-PDC complex spheroid viability
Experiment: Anticancer human tumor 324938-238-R-J1-PDC patient-derived bladder carcinoma cell line growth inhibition
Conditions: for viability, T/C: stronger effect = lower value
In short: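 Drug combinations with the LSD1 inhibitor iadademstat tested on tumor cells co-cultured as spheroids with endothelial cells and mesenchymal stem cells. Concentrations descended in half-log increments from clinical Cmax or 10 microM.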

[1] = curve of first compound, second compound 0.1 µM
[2] = curve of first compound, second compound 0.316 µM
[3] = curve of first compound, second compound 1 µM
[4] = curve of first compound, second compound 3.16 µM
[5] = curve of first compound, second compound 10 µM
[6] = second compound 0.1 µM, first compound 0.00316 µM
[7] = second compound 0.1 µM, first compound 0.01 µM
[8] = second compound 0.1 µM, first compound 0.0316 µM
[9] = second compound 0.1 µM, first compound 0.1 µM
[10] = second compound 0.1 µM, first compound 0.316 µM
[11] = second compound 0.1 µM, first compound 1 µM
[12] = second compound 0.316 µM, first compound 0.00316 µM
[13] = second compound 0.316 µM, first compound 0.01 µM
[14] = second compound 0.316 µM, first compound 0.0316 µM
[15] = second compound 0.316 µM, first compound 0.1 µM
[16] = second compound 0.316 µM, first compound 0.316 µM
[17] = second compound 0.316 µM, first compound 1 µM
[18] = second compound 1 µM, first compound 0.00316 µM
[19] = second compound 1 µM, first compound 0.01 µM
[20] = second compound 1 µM, first compound 0.0316 µM
[21] = second compound 1 µM, first compound 0.1 µM
[22] = second compound 1 µM, first compound 0.316 µM
[23] = second compound 1 µM, first compound 1 µM
[24] = second compound 3.16 µM, first compound 0.00316 µM
[25] = second compound 3.16 µM, first compound 0.01 µM
[26] = second compound 3.16 µM, first compound 0.0316 µM
[27] = second compound 3.16 µM, first compound 0.1 µM
[28] = second compound 3.16 µM, first compound 0.316 µM
[29] = second compound 3.16 µM, first compound 1 µM
[30] = second compound 10 µM, first compound 0.00316 µM
[31] = second compound 10 µM, first compound 0.01 µM
[32] = second compound 10 µM, first compound 0.0316 µM
[33] = second compound 10 µM, first compound 0.1 µM
[34] = second compound 10 µM, first compound 0.316 µM
[35] = second compound 10 µM, first compound 1 µM
[36] = second compound 0.1 µM, first compound 3.16 µM
[37] = second compound 0.1 µM, first compound 10 µM
[38] = second compound 0.316 µM, first compound 3.16 µM
[39] = second compound 0.316 µM, first compound 10 µM
[40] = second compound 1 µM, first compound 3.16 µM
[41] = second compound 1 µM, first compound 10 µM
[42] = second compound 3.16 µM, first compound 3.16 µM
[43] = second compound 3.16 µM, first compound 10 µM
[44] = second compound 10 µM, first compound 3.16 µM
[45] = second compound 10 µM, first compound 10 µM
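Also: spheroids also contain HUVEC and human MSCs and agents combined with iadademstat; spheroids exposed to agents for 7 days before readout.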

CC1COCCN1c1cc(-c2ccnn2C)c2ccnc(-c3ccn[nH]3)c2n1 (configuration not stated) + NC1CCC(NC2CC2c2ccccc2)CC1
IC50 [1]: 26 nM
IC50 [2]: 40.4 nM
IC50 [3]: 36.3 nM
IC50 [4]: 25.8 nM
IC50 [5]: 21.6 nM
viability, T/C [6]: 88%
viability, T/C [7]: 64.2%
viability, T/C [8]: 49%
viability, T/C [9]: 31.5%
viability, T/C [10]: 17.3%
viability, T/C [11]: 13.4%
viability, T/C [12]: 76.9%
viability, T/C [13]: 80.9%
viability, T/C [14]: 52.5%
viability, T/C [15]: 31.2%
viability, T/C [16]: 17.4%
viability, T/C [17]: 15.2%
viability, T/C [18]: 80.8%
viability, T/C [19]: 73.2%
viability, T/C [20]: 51.8%
viability, T/C [21]: 31.2%
viability, T/C [22]: 18.7%
viability, T/C [23]: 14.8%
viability, T/C [24]: 72.8%
viability, T/C [25]: 59.6%
viability, T/C [26]: 49.7%
viability, T/C [27]: 31.8%
viability, T/C [28]: 19.9%
viability, T/C [29]: 15.5%
viability, T/C [30]: 72.3%
viability, T/C [31]: 60.3%
viability, T/C [32]: 44.7%
viability, T/C [33]: 30.8%
viability, T/C [34]: 20.1%
viability, T/C [35]: 14.3%

CC1(C)CCC(CN2CCN(c3ccc(C(=O)NS(=O)(=O)c4ccc(NCC5CCOCC5)c([N+](=O)[O-])c4)c(Oc4cnc5[nH]ccc5c4)c3)CC2)=C(c2ccc(Cl)cc2)C1 + NC1CCC(NC2CC2c2ccccc2)CC1
IC50 [1]: 5120 nM
IC50 [2]: 5640 nM
IC50 [3]: 4250 nM
IC50 [4]: 4620 nM
IC50 [5]: 4480 nM
viability, T/C [8]: 75.7%
viability, T/C [9]: 71.4%
viability, T/C [10]: 72.2%
viability, T/C [11]: 71%
viability, T/C [36]: 65.2%
viability, T/C [37]: 29.1%
viability, T/C [14]: 74.2%
viability, T/C [15]: 75.5%
viability, T/C [16]: 79.7%
viability, T/C [17]: 71.2%
viability, T/C [38]: 69.7%
viability, T/C [39]: 30.9%
viability, T/C [20]: 75.2%
viability, T/C [21]: 78%
viability, T/C [22]: 68.7%
viability, T/C [23]: 66.1%
viability, T/C [40]: 60.6%
viability, T/C [41]: 26.7%
viability, T/C [26]: 68.3%
viability, T/C [27]: 68%
viability, T/C [28]: 68.8%
viability, T/C [29]: 70.8%
viability, T/C [42]: 61.7%
viability, T/C [43]: 24.8%
viability, T/C [32]: 71.7%
viability, T/C [33]: 64.3%
viability, T/C [34]: 64.7%
viability, T/C [35]: 70.4%
viability, T/C [44]: 59.5%
viability, T/C [45]: 26%

CC1(C)CCC(CN2CCN(c3ccc(C(=O)NS(=O)(=O)c4ccc(NCC5CCOCC5)c([N+](=O)[O-])c4)c(Oc4cnc5[nH]ccc5c4)c3)CC2)=C(c2ccc(Cl)cc2)C1 + NC1CC1c1ccc(-c2cccc(O)c2)cc1
IC50 [1]: 3960 nM
IC50 [2]: 4480 nM
IC50 [3]: 3960 nM
IC50 [4]: 4190 nM
IC50 [5]: 2230 nM
viability, T/C [8]: 94.5%
viability, T/C [9]: 91.3%
viability, T/C [10]: 91.7%
viability, T/C [11]: 71%
viability, T/C [36]: 61.5%
viability, T/C [37]: 17.3%
viability, T/C [14]: 72%
viability, T/C [15]: 74.9%
viability, T/C [16]: 73.2%
viability, T/C [17]: 66.5%
viability, T/C [38]: 64.2%
viability, T/C [39]: 19.8%
viability, T/C [20]: 78.4%
viability, T/C [21]: 74.6%
viability, T/C [22]: 66.4%
viability, T/C [23]: 69.8%
viability, T/C [40]: 58.5%
viability, T/C [41]: 19.8%
viability, T/C [26]: 70.9%
viability, T/C [27]: 68.3%
viability, T/C [28]: 68.1%
viability, T/C [29]: 74.3%
viability, T/C [42]: 59.6%
viability, T/C [43]: 20.3%
viability, T/C [32]: 70.5%
viability, T/C [33]: 67.6%
viability, T/C [34]: 66.3%
viability, T/C [35]: 56.8%
viability, T/C [44]: 47.9%
viability, T/C [45]: 17.8%

COc1cc(C2c3cc4c(cc3C(OC3OC5COC(C)OC5C(O)C3O)C3COC(=O)C23)OCO4)cc(OC)c1O (configuration not stated) + NC1CC1c1ccc(-c2cccc(O)c2)cc1
IC50 [1]: 61.7 nM
IC50 [2]: 60.3 nM
IC50 [3]: 45.8 nM
IC50 [4]: 46.5 nM
IC50 [5]: 38.2 nM
viability, T/C (second compound 0.1 µM, first compound 0.00949 µM): 82.3%
viability, T/C (second compound 0.1 µM, first compound 0.03 µM): 74.6%
viability, T/C (second compound 0.1 µM, first compound 0.0949 µM): 35.1%
viability, T/C (second compound 0.1 µM, first compound 0.3 µM): 18.9%
viability, T/C (second compound 0.1 µM, first compound 0.949 µM): 20.9%
viability, T/C (second compound 0.1 µM, first compound 3 µM): 10.6%
viability, T/C (second compound 0.316 µM, first compound 0.00949 µM): 69.8%
viability, T/C (second compound 0.316 µM, first compound 0.03 µM): 67.1%
viability, T/C (second compound 0.316 µM, first compound 0.0949 µM): 38.4%
viability, T/C (second compound 0.316 µM, first compound 0.3 µM): 22.2%
viability, T/C (second compound 0.316 µM, first compound 0.949 µM): 17.6%
viability, T/C (second compound 0.316 µM, first compound 3 µM): 8.16%
viability, T/C (second compound 1 µM, first compound 0.00949 µM): 67.9%
viability, T/C (second compound 1 µM, first compound 0.03 µM): 60%
viability, T/C (second compound 1 µM, first compound 0.0949 µM): 34%
viability, T/C (second compound 1 µM, first compound 0.3 µM): 19.6%
viability, T/C (second compound 1 µM, first compound 0.949 µM): 19.2%
viability, T/C (second compound 1 µM, first compound 3 µM): 7.9%
viability, T/C (second compound 3.16 µM, first compound 0.00949 µM): 74%
viability, T/C (second compound 3.16 µM, first compound 0.03 µM): 59%
viability, T/C (second compound 3.16 µM, first compound 0.0949 µM): 35.6%
viability, T/C (second compound 3.16 µM, first compound 0.3 µM): 23.3%
viability, T/C (second compound 3.16 µM, first compound 0.949 µM): 17.3%
viability, T/C (second compound 3.16 µM, first compound 3 µM): 11.7%
viability, T/C (second compound 10 µM, first compound 0.00949 µM): 73.5%
viability, T/C (second compound 10 µM, first compound 0.03 µM): 54.8%
viability, T/C (second compound 10 µM, first compound 0.0949 µM): 34.3%
viability, T/C (second compound 10 µM, first compound 0.3 µM): 27.5%
viability, T/C (second compound 10 µM, first compound 0.949 µM): 16.8%
viability, T/C (second compound 10 µM, first compound 3 µM): 11.7%

COc1cc(Nc2ncc3c(n2)-c2ccc(Cl)cc2C(c2c(F)cccc2OC)=NC3)ccc1C(=O)O + NC1CCC(NC2CC2c2ccccc2)CC1
IC50 [1]: 20.8 nM
IC50 [2]: 18.8 nM
IC50 [3]: 18.5 nM
IC50 [4]: 15.4 nM
IC50 [5]: 20.7 nM
viability, T/C [6]: 75.9%
viability, T/C [7]: 67.5%
viability, T/C [8]: 39.9%
viability, T/C [9]: 23%
viability, T/C [10]: 20.4%
viability, T/C [11]: 17.9%
viability, T/C [12]: 79.8%
viability, T/C [13]: 65.7%
viability, T/C [14]: 37.4%
viability, T/C [15]: 20.5%
viability, T/C [16]: 18.3%
viability, T/C [17]: 20.9%
viability, T/C [18]: 73.3%
viability, T/C [19]: 63.5%
viability, T/C [20]: 38.5%
viability, T/C [21]: 19.6%
viability, T/C [22]: 21.9%
viability, T/C [23]: 19.4%
viability, T/C [24]: 74.2%
viability, T/C [25]: 56.1%
viability, T/C [26]: 39.9%
viability, T/C [27]: 24.9%
viability, T/C [28]: 21.7%
viability, T/C [29]: 21.2%
viability, T/C [30]: 70.7%
viability, T/C [31]: 65.3%
viability, T/C [32]: 40%
viability, T/C [33]: 31%
viability, T/C [34]: 22.7%
viability, T/C [35]: 23.1%

CC1COCCN1c1cc(C2(S(C)(=N)=O)CC2)nc(-c2ccnc3[nH]ccc23)n1 (configuration not stated)
viability, T/C (compound 0.0316 µM): 104% and 97.9%
viability, T/C (compound 0.1 µM): 101% and 108%
viability, T/C (compound 0.316 µM): 98.3% and 78.8%
viability, T/C (compound 1 µM): 71.4% and 44.7%
viability, T/C (compound 3.16 µM): 27.9% and 21.4%
viability, T/C (compound 10 µM): 14.6% and 8.79%
IC50 (curve of compound): 1760 nM and 853 nM
